Measurements as given in ChEMBL document CHEMBL2074019, “Functional characterization of human organic anion transporting polypeptide B (OATP-B) in comparison with liver-specific OATP-C” (Pharm Res, 2001).
Structures can show the parent of a compound that is named as a salt.

Key:
Assay type in all cases: functional, cell-based
[1] = target: T1, Solute carrier organic anion transporter family member 1B1 (Homo sapiens, UniProt Q9Y6L6); test: TP_TRANSPORTER: inhibition of E1S uptake (E1S: 0.04 uM, Estrone-3-glucuronide: 100 uM) in OATP-C-expressing HEK293 cells; conditions: hek293, 100 µM
T1 sequence (Q9Y6L6 whole entry): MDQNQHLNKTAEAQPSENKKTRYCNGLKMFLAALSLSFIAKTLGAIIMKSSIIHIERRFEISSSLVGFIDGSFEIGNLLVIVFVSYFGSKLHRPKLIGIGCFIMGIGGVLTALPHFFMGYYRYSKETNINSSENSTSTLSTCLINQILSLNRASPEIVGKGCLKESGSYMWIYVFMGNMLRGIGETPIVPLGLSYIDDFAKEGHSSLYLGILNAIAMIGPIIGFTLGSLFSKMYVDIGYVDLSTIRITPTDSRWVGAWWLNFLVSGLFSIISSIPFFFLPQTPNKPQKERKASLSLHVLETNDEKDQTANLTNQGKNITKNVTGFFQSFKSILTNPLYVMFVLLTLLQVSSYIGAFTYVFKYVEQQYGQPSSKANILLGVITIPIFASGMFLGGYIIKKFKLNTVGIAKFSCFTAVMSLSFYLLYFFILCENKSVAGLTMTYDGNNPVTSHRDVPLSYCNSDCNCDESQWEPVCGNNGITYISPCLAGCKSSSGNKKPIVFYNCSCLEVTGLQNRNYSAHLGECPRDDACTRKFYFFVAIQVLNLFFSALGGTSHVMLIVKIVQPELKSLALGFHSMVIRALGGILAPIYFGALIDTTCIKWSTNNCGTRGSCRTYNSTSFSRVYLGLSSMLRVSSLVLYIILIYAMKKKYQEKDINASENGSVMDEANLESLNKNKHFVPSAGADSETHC

[2] = target: T2, Solute carrier organic anion transporter family member 2B1 (Homo sapiens, UniProt O94956); test: TP_TRANSPORTER: inhibition of E1S uptake (E1S: 0.04 uM, Estradiol-3-sulfate: 100 uM) in OATP-B-expressing HEK293 cells; conditions: hek293, 100 µM
T2 sequence (O94956 whole entry): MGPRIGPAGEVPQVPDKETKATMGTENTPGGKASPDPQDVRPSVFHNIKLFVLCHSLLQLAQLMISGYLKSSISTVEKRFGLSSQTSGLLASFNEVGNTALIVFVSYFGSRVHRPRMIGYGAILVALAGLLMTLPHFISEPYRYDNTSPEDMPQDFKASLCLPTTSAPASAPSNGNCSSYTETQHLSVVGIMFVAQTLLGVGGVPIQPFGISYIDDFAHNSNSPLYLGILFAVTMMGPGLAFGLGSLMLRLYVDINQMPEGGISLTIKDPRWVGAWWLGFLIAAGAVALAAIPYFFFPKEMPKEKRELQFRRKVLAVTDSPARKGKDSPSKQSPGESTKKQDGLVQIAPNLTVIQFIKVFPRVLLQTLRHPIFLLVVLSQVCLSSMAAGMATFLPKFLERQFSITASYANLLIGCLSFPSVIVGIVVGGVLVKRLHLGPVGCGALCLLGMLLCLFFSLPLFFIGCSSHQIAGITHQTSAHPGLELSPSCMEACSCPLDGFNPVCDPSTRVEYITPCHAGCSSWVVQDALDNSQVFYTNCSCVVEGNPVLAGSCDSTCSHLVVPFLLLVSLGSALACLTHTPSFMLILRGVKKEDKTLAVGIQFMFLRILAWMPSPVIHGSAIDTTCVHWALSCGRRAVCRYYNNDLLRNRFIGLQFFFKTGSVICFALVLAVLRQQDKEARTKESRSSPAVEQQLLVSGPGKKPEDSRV

[3] = target: T1, Solute carrier organic anion transporter family member 1B1; test: TP_TRANSPORTER: inhibition of E1S uptake (E1S: 0.04 uM, Estradiol-3-sulfate: 100 uM) in OATP-C-expressing HEK293 cells; conditions: hek293, 100 µM
[4] = target: T1, Solute carrier organic anion transporter family member 1B1; test: TP_TRANSPORTER: inhibition of E217betaG uptake in OATP-C-expressing HEK293 cells
[5] = target: T1, Solute carrier organic anion transporter family member 1B1; test: TP_TRANSPORTER: inhibition of E1S uptake (E1S: 0.04 uM, E217betaG: 100 uM) in OATP-C-expressing HEK293 cells; conditions: hek293, 100 µM
[6] = target: T1, Solute carrier organic anion transporter family member 1B1; test: TP_TRANSPORTER: inhibition of E1S uptake (E1S: 0.04 uM, E2 3SO4 17betaG: 100 uM) in OATP-C-expressing HEK293 cells; conditions: hek293, 100 µM
[7] = target: T2, Solute carrier organic anion transporter family member 2B1; test: TP_TRANSPORTER: inhibition of E1S uptake (E1S: 0.04 uM, beta-Estradiol: 100 uM) in OATP-B-expressing HEK293 cells; conditions: hek293, 100 µM
[8] = target: T1, Solute carrier organic anion transporter family member 1B1; test: TP_TRANSPORTER: inhibition of E1S uptake (E1S: 0.04 uM, beta-Estradiol: 100 uM) in OATP-C-expressing HEK293 cells; conditions: hek293, 100 µM
[9] = target: T2, Solute carrier organic anion transporter family member 2B1; test: TP_TRANSPORTER: inhibition of E1S uptake (E1S: 0.04 uM, #Estrone: 100 uM) in OATP-B-expressing HEK293 cells; conditions: hek293, 100 µM
[10] = target: T1, Solute carrier organic anion transporter family member 1B1; test: TP_TRANSPORTER: inhibition of E1S uptake (E1S: 0.04 uM, #Estrone: 100 uM) in OATP-C-expressing HEK293 cells; conditions: hek293, 100 µM
[11] = substrate: C[C@]12CC[C@@H]3c4ccc(O)cc4CC[C@H]3[C@@H]1CC[C@@H]2O[C@@H]1O[C@H](C(=O)O)[C@@H](O)[C@H](O)[C@H]1O; test: TP_TRANSPORTER: uptake in OATP-C-expressing HEK293 cells
[12] = substrate: C[C@]12CC[C@@H]3c4ccc(OS(=O)(=O)O)cc4CC[C@H]3[C@@H]1CCC2=O; test: TP_TRANSPORTER: uptake in OATP-B-expressing HEK293 cells

Molecule: C[C@]12CC[C@@H]3c4ccc(O[C@@H]5O[C@H](C(=O)O)[C@@H](O)[C@H](O)[C@H]5O)cc4CC[C@H]3[C@@H]1CCC2=O
- Activity [1]: inhibitor [(at a rough estimate) 40 % of control]

Molecule: C[C@]12CC[C@@H]3c4ccc(OS(=O)(=O)O)cc4CC[C@H]3[C@@H]1CC[C@@H]2O
- Activity [2]: inhibitor [(at a rough estimate) 30 % of control]
- Activity [3]: inhibitor [(at a rough estimate) 10 % of control]

Molecule: C[C@]12CC[C@@H]3c4ccc(O)cc4CC[C@H]3[C@@H]1CC[C@@H]2O[C@@H]1O[C@H](C(=O)O)[C@@H](O)[C@H](O)[C@H]1O [ESTRADIOL 17B GLUCURONIDE]
- Ki [4]: 4430 nM
- Activity [5]: inhibitor [(at a rough estimate) <1 % of control]

Molecule: C[C@]12CC[C@@H]3c4ccc(OS(=O)(=O)O)cc4CC[C@H]3[C@@H]1CC[C@@H]2O[C@@H]1O[C@H](C(=O)O)[C@@H](O)[C@H](O)[C@H]1O [ESTRADIOL GLUCURONIDE SULFATE]
- Activity [6]: inhibitor [(at a rough estimate) 40 % of control]

Molecule: C[C@]12CC[C@@H]3c4ccc(O)cc4CC[C@H]3[C@@H]1CC[C@@H]2O [ESTRADIOL]
- Activity [7]: inhibitor [(at a rough estimate) 60 % of control]
- Activity [8]: inhibitor [(at a rough estimate) 35 % of control]

Molecule: C[C@]12CC[C@@H]3c4ccc(OS(=O)(=O)O)cc4CC[C@H]3[C@@H]1CCC2=O [ESTRONE SULFURIC ACID]
- Ki [4]: 45.8 nM

Molecule: C[C@]12CC[C@@H]3c4ccc(O)cc4CC[C@H]3[C@@H]1CCC2=O [ESTRONE]
- Activity [9]: inhibitor [(at a rough estimate) 45 % of control]
- Activity [10]: inhibitor [(at a rough estimate) 40 % of control]

B1: Solute carrier organic anion transporter family member 1B1 (Homo sapiens) (protein)
chain: T1 sequence (Q9Y6L6 whole entry)
- Km [11]: 3.71 µM

B2: Solute carrier organic anion transporter family member 2B1 (Homo sapiens) (protein)
chain: T2 sequence (O94956 whole entry)
- Km [12]: 12.5 µM
